The text below walks through data of patent publication EP4574819A1, “DIAZINONE COMPOUNDS FOR THE CONTROL OF INVERTEBRATE PESTS” (priority 2023, dated 2025).

Holding throughout (format): in vivo
For data set [1], the system named is Tobacco budworm (Heliothis virescens). The data set can be described thus: Tobacco budworm (Heliothis virescens) egg/larval mortality on sprayed insect diet in 96-well microtiter plates. The conditions noted are these: 120 h, egg and larval mortality after 5 days, in comparison with untreated controls. The procedure:
B.1 Tobacco budworm (Heliothis virescens)
For evaluating control of tobacco budworm (Heliothis virescens) the test unit consists of 96-well-microtiter plates containing an insect diet and 15-25 H. virescens eggs.
The compounds are formulated using a solution containing 75% v/v water and 25% v/v DMSO. Different concentrations of formulated compounds are sprayed onto the insect diet at 10µl, using a custom-built micro atomizer, at two replications.
After application, microtiter plates are incubated at about 28 ± 1°C and about 80 ± 5 % relative humidity for 5 days. Egg and larval mortality is then visually assessed.

Data set [2] concerns Diamond back moth (Plutella xylostella). As to the kind of experiment: Diamond back moth (Plutella xylostella) cabbage leaf dip test. The conditions noted are these: 3rd instar larvae, 72 hours after treatment, in comparison with untreated controls. The procedure: B.3 Diamond back moth (Plutella xylostella)
The active compound was dissolved at the desired concentration in a mixture of 1:1 (vol:vol) distilled water: acetone. Surfactant (Kinetic HV) was added at a rate of 0.01% (vol/vol). The test solution was prepared on the day of use.
Leaves of cabbage were dipped in test solution and air-dried. Treated leaves were placed in petri dishes lined with moist filter paper and inoculated with ten 3rd instar larvae. Mortality was recorded 72 hours after treatment. Feeding damages were also recorded using a scale of 0-100%.

The subject of data set [3] is Yellow fever mosquito (Aedes aegypti). As to the kind of experiment: whole plant or invertebrate. The conditions noted are these: larval mortality after 2 days, in comparison with untreated controls. How it is done: B.4 Yellow fever mosquito (Aedes aegypti)
For evaluating control of yellow fever mosquito (Aedes aegypti) the test unit consists of 96-well-microtiter plates containing 200µl of tap water per well and 5-15 freshly hatched A. aegypti larvae.
The active compounds are formulated using a solution containing 75% (v/v) water and 25% (v/v) DMSO. Different concentrations of formulated compounds or mixtures are sprayed onto the insect diet at 2.5µl, using a custom-built micro atomizer, at two replications.
After application, microtiter plates are incubated at 28±1°C, 80±5 % RH for 2 days. Larval mortality is then visually assessed.

Data set [4] relates to Green peach aphid (Myzus persicae). As to the kind of experiment: Green peach aphid (Myzus persicae) systemic test, artificial diet under artificial membrane. The conditions noted are these: adult aphids, 3 days, in comparison with untreated controls. The text has this: B.5 Green peach aphid (Myzus persicae)
For evaluating control of green peach aphid (Myzus persicae) through systemic means, the test unit consisted of 96-well-microtiter plates containing liquid artificial diet under an artificial membrane.
The compounds were formulated using a solution containing 75% v/v water and 25% v/v DMSO. Different concentrations of formulated compounds were pipetted into the aphid diet, using a custom built pipetter, at two replications.
After application, 5 - 8 adult aphids were placed on the artificial membrane inside the microtiter plate wells. The aphids were then allowed to suck on the treated aphid diet and incubated at about 23 ± 1°C and about 50 ± 5 % relative humidity for 3 days. Aphid mortality and fecundity was then visually assessed.

The subject of data set [5] is Boll weevil (Anthonomus grandis). The data set can be described thus: Boll weevil (Anthonomus grandis) egg/larval mortality on sprayed insect diet in 96-well microtiter plates. The conditions noted are these: 2500 ppm; egg and larval mortality after 5 days; in comparison with untreated controls. The procedure:
B.2 Boll weevil (Anthonomus grandis)
For evaluating control of boll weevil (Anthonomus grandis) the test unit consists of 96-well-microtiter plates containing an insect diet and 5-10 A. grandis eggs.
The compounds are formulated using a solution containing 75% v/v water and 25% v/v DMSO. Different concentrations of formulated compounds are sprayed onto the insect diet at 5µl, using a custom-built micro atomizer, at two replications.
After application, microtiter plates are incubated at about 25 ± 1°C and about 75 ± 5 % relative humidity for 5 days. Egg and larval mortality is then visually assessed.

Some results are limits rather than exact numbers.

As to `CC(NC(=O)c1cc(C(F)(F)F)cc(C(F)(F)F)c1)c1nccnc1C1=NN(C)C(=O)CO1` (centres unmarked) [Compound I-4, N-(1-(3-(4-methyl-5-oxo-5,6-dihydro-4H-1,3,4-oxadiazin-2-yl)pyrazin-2-yl)ethyl)-3,5-bis(trifluoromethyl)benzamide], the mortality (usually the percentage killed) at 2500 ppm in data set [1] is ≥ 75%; in data set [2] (Plutella xylostella, foliar), ≥ 75%; in data set [3] (Aedes aegypti, 48 h), ≥ 75%; in data set [4] (Myzus persicae, 72 h), ≥ 75%.

Take `CC(NC(=O)c1cc(C(F)(F)F)cc(C(F)(F)F)c1)c1nccnc1C1=NNC(=O)CN1C` (centres unmarked) [Compound I-1, N-(1-(3-(4-Methyl-6-oxo-1,4,5,6-tetrahydro-1,2,4-triazin-3-yl)pyrazin-2-yl)ethyl)-3,5-bis(trifluoromethyl)benzamide]: the mortality result in data set [5], in data set [2] (2500 ppm), in data set [3] (2500 ppm) and in data set [4] (2500 ppm) was “at least 75%” in each case.
